Data from PubChem BioAssay AID1850 (Southern Research Specialized Biocontainment Screening …, 2009).

System: Salmonella Typhi PhoP-promoter GFP reporter, fluorescence, 4 h
Test: Inhibition of PhoP regulon, Salmonella typhi GFP reporter cells, confirmation, 4 h (AID 1850)

| SMILES | IC50 [µM] |
| --- | --- |
| CCOC(=O)N/N=C(/C)c1ccc([N+](=O)[O-])o1 | 53.7 |
| CCN(CC)CCn1c(=N)n(CC(O)COc2cccc(C)c2)c2ccccc21 (centres undefined) | 135 |
| Cc1cc(C)c2c(N)c3ccccc3nc2n1 | 77.3 |
| c1ccc2c(c1)C(=NC1CCCCC1)NC2=NC1CCCCC1 | 65.6 |
| O=C(N/N=C/c1cc(Cl)cc(Cl)c1O)c1ccncc1 | 35.2 |
| CN1CCN(c2nc3cc(C(F)(F)F)ccc3n3cccc23)CC1 | 73.7 |
| CCCCCCCC(=O)N/N=C/c1ccc([N+](=O)[O-])o1 | 26.7 |
| O=C(COc1ccc(Br)cc1CNCCc1ccccc1)NCc1ccccc1 | 106 |
| CCCCCCCCCCCCCCCC[n+]1ccc(C(N)=O)cc1 | 10.5 |
| CCOc1ccc(Nc2nc(NCC3CCCO3)c3ccccc3n2)cc1 (centres undefined) | 3.28 |
| CN1CCc2nc(SCC(=O)Nc3cccc(F)c3)c(C#N)c(-c3cccs3)c2C1 | 86.2 |
| O=C(N/N=C/c1c(O)ccc2ccccc12)c1ccc(CO)nc1 | 87.3 |
| COc1ccc(/C=C/c2cc[n+](C(=O)Cc3ccccc3)cc2)cc1 | 118 |
| COc1c(N2CCN(C(=S)NC3CC4CCC3C4)C(C)C2)c(F)cc2c(=O)c(C(=O)O)cn(C3CC3)c12 (centres undefined) | 6.62 |
| CCCCCCCCCCCCOC(=O)C[N+](C)(C)C | 29.9 |
| CN(C)CCOCCOc1ccc(Cl)c2ccccc12 | 103 |
| Nc1nc2ccccc2n1CCOc1ccccc1Cl | 73.3 |
| O=C(Nc1nnc(-c2ccccn2)o1)c1cccc(Cl)c1 | 114 |
| CCc1ccc2c(c1)Sc1ccccc1CC2N1CCN(C)CC1 (centres undefined) | 40.7 |
| CCCC(=O)NC(c1ccco1)c1cc([N+](=O)[O-])c2cccnc2c1O (centres undefined) | 38.9 |
| O=C(CSC1=NC(=O)C(c2ccccc2)C(=O)N1)Nc1cccc(Cl)c1 (centres undefined) | 43.8 |
| O=C(Nc1cccnc1)c1cc(Br)c(Br)s1 | 19.1 |
| Cc1c2ccncc2c(C)c2c1[nH]c1ccccc12 | 18.8 |

| SMILES | IC50 [µM] |
| --- | --- |
| CC[C@H]1OC(=O)[C@H](C)[C@@H](O[C@H]2C[C@@](C)(OC)[C@@H](O)[C@H](C)O2)[C@H](C)[C@@H](O[C@@H]2O[C@H](C)C[C@H](N(C)C)[C@H]2O)[C@](C)(OC)C[C@@H](C)C(=O)[C@H](C)[C@@H](O)[C@]1(C)O | 52 |
| O=c1c(O)cccc2cc(O)c(O)c(O)c12 | 25.8 |
| Oc1c(I)cc(Cl)c2cccnc12 | 9.4 |
| CCOc1ccc(Nc2c3ccccc3nc3ccccc23)cc1 | 10.2 |
| CCn1cc(C(=O)O)c(=O)c2cc(F)c(N3CCN(C(=S)NC(=O)c4ccc(Br)cc4)CC3)cc21 | 12.7 |
| CN1/C(=C\C=C\C2=[N+](C)c3ccc4ccccc4c3C2(C)C)C(C)(C)c2ccccc21 | 5.78 |
| O=C(C[n+]1cc(-c2ccccc2)n2c1CCC2)Nc1nc(-c2ccc(F)cc2)cs1 | 38.7 |
| NC1=NC[C@@H](Cc2ccc(O)cc2)N1CCCCC1CCCCC1 | 13.7 |
| N=c1n(Cc2ccc(Cl)cc2)c2ccccc2n1CC(O)COc1ccccc1 (centres undefined) | 55.4 |
| Cc1ccc2nc(N(CCCN(C)C)C(=O)c3ccc4c(c3)CCCC4)sc2c1 | 40.7 |
| Fc1ccc(Nc2ccnc(Nc3ccc(F)cc3)n2)cc1 | 20 |
| Cc1ccc(-n2c(C)cc(C3N=C(N)Nc4nc5ccccc5n43)c2C)c(C)c1 (centres undefined) | 20.8 |
| Cc1cccc(OCC(O)Cn2c(=N)n(CCN3CCCCC3)c3ccccc32)c1 (centres undefined) | 78.3 |
| Cc1nonc1C(=O)N/N=C/c1ccc([N+](=O)[O-])o1 | 37.5 |
| CCCCCc1ccc(OCCCC[n+]2ccccc2)c(CCCCC)c1 | 35.3 |
| CCc1cccc2c1Sc1ccccc1CC2N1CCNCC1 (centres undefined) | 50.8 |
| CNCCCC1c2ccccc2C=Cc2ccccc21 | 136 |
| Cc1cccc(Nc2c3c(nc4ccccc24)CCC3)c1 | 34.7 |
| CCn1cc(C(=O)NCc2ccc3c(c2)OCO3)c(=O)c2cc(F)c(N3CCN(C(=O)c4ccco4)CC3)cc21 | 139 |
| Oc1ccc(Cl)cc1Cc1cc(Cl)ccc1O | 33.8 |
| O=C(Nc1ccc(Cc2ccncc2)cc1)c1ccc([N+](=O)[O-])o1 | 80.3 |
| CCn1cc(C(=O)O)c(=O)c2cc(F)c(N3CCN(C(=S)NC(=O)c4ccccc4)CC3)cc21 | 18 |
| CN(C)CCCNC(=O)c1ccc(-c2nc(-c3ccc(Cl)cc3)cs2)cc1 | 20.8 |

| SMILES | IC50 [µM] |
| --- | --- |
| CC(=O)Nc1cccc(NC(=O)Nc2ccc(F)cc2F)c1 | 40.8 |
| CCOC(=O)c1ccc(CNCc2ccc(Br)cc2)cc1 | 78.5 |
| CN1CCN(C(c2cccc(Cl)c2)c2ccccc2Cl)CC1 (centres undefined) | 103 |
| CO[C@@]1(NC(=O)C2SC(=C(C(N)=O)C(=O)O)S2)C(=O)N2C(C(=O)O)=C(CSc3nnnn3C)CS[C@@H]21 (some centres undefined) | 9.42 |
| CNCc1c(OCc2ccccc2F)ccc2ccccc12 | 79.5 |
| c1ccc(CN2CCC(Nc3nc(-c4cccs4)nc4ccccc34)CC2)cc1 | 21.5 |
| COc1cccc(-c2nnc(NC(=O)c3ccc(Cl)s3)o2)c1 | 101 |
| CNC(=S)N1CCN(c2c(F)cc3c(=O)c(C(=O)O)cn(C4CC4)c3c2OC)CC1C (centres undefined) | 7.83 |
| CN(C)CC/C=C1\c2ccc(F)cc2Sc2cc(F)c(Cl)cc21 | 32.4 |
| CN(O)/C=c1/ccc2c(n1)C(=O)C=CC=2 | 34.8 |
| CSc1ccc2c(c1)N(CCC1CCCCN1C)c1ccccc1S2 (centres undefined) | 74 |
| O=c1[nH]cc(F)c(=O)[nH]1 | 2.99 |
| CCCCCN=C(N)N/N=C/c1c[nH]c2ccc(OC)cc12 | 38 |
| Cc1cc(C2CCCCC2)n(O)c(=O)c1 | 17.2 |
| O=Nc1c(O)c2ccccc2c2ccccc12 | 19.7 |
| Cc1ccc(CNCCC2=CCCCC2)cc1 | 46.1 |
| CCCCCCCCCCOC(=O)Cn1c(COc2cccc(C)c2)[n+](C)c2ccccc21 | 12.4 |
| COC(=O)C1C(O)C(C)C(O)C(C)/C=C\C=C(/C)C(=O)Nc2c(C)c(OC(C)=O)c3c(c2O)C(=O)C(C)=C2OCOC(=C23)/C(C)=C/C(C)(O)C(O)C(C)C1O (centres undefined) | 25.2 |
| CCCCCCCCNC(C)C(O)c1ccc(SC(C)C)cc1 (centres undefined) | 25.2 |
| O=C(Nc1ccc(Cl)cc1)N1CCCN(Cc2ccccc2F)C1 | 34.9 |
| O=C1C2=C(Nc3ccccc3SC2c2ccco2)c2ccccc21 (centres undefined) | 12.3 |
| Cc1ccc(OCC(O)Cn2c(=N)n(CCN3CCCCC3)c3ccccc32)cc1 (centres undefined) | 112 |
| CCCCCC(=O)NC(=S)NNC(=O)CC | 133 |

| SMILES | IC50 [µM] |
| --- | --- |
| O=C1CN(/N=C/c2ccc([N+](=O)[O-])o2)C(=O)N1 | 41.1 |
| CC(=O)c1cc(O)c2ccccc2c1O | 111 |
| CNC[C@H](Cc1ccccc1)NC[C@@H](Cc1cccc2ccccc12)NCCc1ccc(C)cc1 | 19.6 |
| C/C(=N\Nc1ccc2nncn2n1)c1ccccn1 | 65.7 |
| Cc1ccc(C(=O)N/C(=C\c2ccc(-c3ccc(Br)cc3)o2)C(=O)NCCCN(C)C)cc1 | 37.1 |
| CC1(CC(=O)N/N=C/c2cc([N+](=O)[O-])c(O)cc2O)OCCO1 | 77.7 |
| NC1=NC[C@H](CC2CCCCC2)N1CCc1cc(C(F)(F)F)cc(C(F)(F)F)c1 | 35.6 |
| Cc1ccc(C)c(N/C(N)=N/c2nc(C)cc(C)n2)c1 | 141 |
| NC1=NC[C@H](Cc2ccc(O)cc2)N1CCCCC1CCCCC1 | 17.7 |
| CN1CCc2c(sc(NC(=O)c3ccc([N+](=O)[O-])o3)c2C(N)=O)C1 | 18.7 |
| C/C(=N\N=C(N)N)c1ccc(Cl)c(Cl)c1 | 78.1 |
| Oc1ccc(CN2CCN(Cc3ccccc3)CC2)c2cccnc12 | 33.5 |
| COc1ccc(CNCCc2cccc(F)c2)c2ccccc12 | 74.6 |
| Cc1cc(OCC(O)CNC(C)c2ccccc2)ccc1C(C)C (centres undefined) | 38.1 |
| COc1c(N2CCN(C(=S)NCc3ccccc3)C(C)C2)c(F)cc2c(=O)c(C(=O)O)cn(C3CC3)c12 (centres undefined) | 36.1 |
| Cc1cc(NC2CCCCC2)nc(NCc2ccccc2)n1 | 34.1 |
| Cc1cccc(Nc2nc(NCc3ccco3)c3ccccc3n2)c1 | 4.95 |
| Cc1cc([N+](=O)[O-])cc(/C=N/n2c(C)nc3ccccc3c2=O)c1O | 77.2 |
| O=C(CSc1ccccn1)N/N=C/c1cc([N+](=O)[O-])ccc1O | 76.1 |
| CC[C@@H](C)[C@H](CN[C@H](CNC)C(C)C)NC[C@@H](C)c1ccc(CC(C)C)cc1 | 74 |
| OC(CNCC1CCCO1)Cn1c2ccc(Cl)cc2c2cc(Cl)ccc21 (centres undefined) | 35.2 |
| CCCCCCOC(=O)C[N+](C)(C)CCOC1CC2CCC1(C)C2(C)C (centres undefined) | 36.5 |
| Cc1nnc(N/N=C/c2ccccn2)[nH]c1=O | 32.8 |

| SMILES | IC50 [µM] |
| --- | --- |
| Oc1c(Br)cc(Br)cc1C=NCc1ccccc1 | 86.6 |
| CN(C)c1ccc(/C=C/c2ccc3ccccc3[n+]2C)cc1 | 18.7 |
| CCCCCCCCCCOC(=O)Cn1c(COc2cccc(OC)c2)[n+](C)c2ccccc21 | 12.7 |
| CC(=O)Nc1ccc(S(=O)(=O)NNc2cccc(C)c2)cc1 | 39.2 |
| CCCCOc1ccc(C(=O)OC2CC(C)N(C)CC2C)cc1 (centres undefined) | 86.3 |
| CCCCCCCCCCOC(=O)Cn1c(COc2ccc(C)cc2)[n+](C)c2ccccc21 | 10.5 |
| CC(C(=O)c1ccc(-c2ccccc2)cc1)[n+]1cccc(NC(=O)c2ccccc2)c1 (centres undefined) | 20.4 |
| O=c1[nH][nH]c(-c2ccccc2O)c1C(C[N+](=O)[O-])c1ccc(Br)cc1 (centres undefined) | 91.5 |
| O=C(Cc1ccccc1)NNC(=S)NC(=O)c1cccs1 | 46.5 |
| Cc1ccc2c(c1)sc(-c1ccc(N(C)C)cc1)[n+]2C | 24.1 |
| O=C(CCN1CCN(c2ccccc2)CC1)c1ccc(Br)cc1 | 104 |
| c1cc2c(cc1C1CCCCC1)c1c3n2CCN=C3CCC1 | 51.1 |
| O=S1(=O)CC=C(CSC(=S)NC2CCS(=O)(=O)C2)C1 (centres undefined) | 78.4 |
| CCCCOc1ccc(CSC(=N)N)cc1Cl | 77.7 |
| O=C(Oc1c(Cl)cc(Cl)c2cccnc12)c1cccc([N+](=O)[O-])c1 | 8.4 |
| Cc1ccc2c(c1)c1c(n2CC(O)CNC2CCCCC2)CCCC1 (centres undefined) | 46.9 |
| CSc1ccc2c(c1)C(N1CCN(C)CC1)Cc1ccc(F)cc1S2 (centres undefined) | 36.8 |
| CCCCOc1ccc(C(=O)NNC(=S)NC(=O)CC)cc1 | 37.1 |
| C#CCOCCOCCOCCNc1nc(N2CCN(C(=O)[C@H](Cc3cc4ccccc4[nH]3)n3cc([C@@H](N)C(C)CC)nn3)CC2)nc(N2CCN(C(=O)[C@H](Cc3cc4ccccc4[nH]3)n3cc([C@@H](N)CC(C)C)nn3)CC2)n1 (some centres undefined) | 70 |
| CN1CC=C(/C=C/c2ccc(-c3ccccc3)cc2)CC1 | 60.2 |
| O=C(N/N=C/c1cc([N+](=O)[O-])ccc1O)C1CC1 | 29.5 |
| O=C(Cc1ccccc1)N/N=C/c1cc(Br)cc(Cl)c1O | 32.7 |
